Test results published in article PMC10895676, “Antiviral Activity of Lipophilic Nucleoside Tetraphosphate Compounds” (Journal of Medicinal Chemistry, 2024).
“Also recorded” adds a separate entry of the source.

The compounds below were run against T1, human DNA polymerase γ (Homo sapiens, UniProt P54098) (assay: Primer extension assay using human DNA polymerase γ). Conditions: 120 min, 2 U, 37 °C.
T1 construct: purchased Chimerx
T1 sequence (P54098 1-1239): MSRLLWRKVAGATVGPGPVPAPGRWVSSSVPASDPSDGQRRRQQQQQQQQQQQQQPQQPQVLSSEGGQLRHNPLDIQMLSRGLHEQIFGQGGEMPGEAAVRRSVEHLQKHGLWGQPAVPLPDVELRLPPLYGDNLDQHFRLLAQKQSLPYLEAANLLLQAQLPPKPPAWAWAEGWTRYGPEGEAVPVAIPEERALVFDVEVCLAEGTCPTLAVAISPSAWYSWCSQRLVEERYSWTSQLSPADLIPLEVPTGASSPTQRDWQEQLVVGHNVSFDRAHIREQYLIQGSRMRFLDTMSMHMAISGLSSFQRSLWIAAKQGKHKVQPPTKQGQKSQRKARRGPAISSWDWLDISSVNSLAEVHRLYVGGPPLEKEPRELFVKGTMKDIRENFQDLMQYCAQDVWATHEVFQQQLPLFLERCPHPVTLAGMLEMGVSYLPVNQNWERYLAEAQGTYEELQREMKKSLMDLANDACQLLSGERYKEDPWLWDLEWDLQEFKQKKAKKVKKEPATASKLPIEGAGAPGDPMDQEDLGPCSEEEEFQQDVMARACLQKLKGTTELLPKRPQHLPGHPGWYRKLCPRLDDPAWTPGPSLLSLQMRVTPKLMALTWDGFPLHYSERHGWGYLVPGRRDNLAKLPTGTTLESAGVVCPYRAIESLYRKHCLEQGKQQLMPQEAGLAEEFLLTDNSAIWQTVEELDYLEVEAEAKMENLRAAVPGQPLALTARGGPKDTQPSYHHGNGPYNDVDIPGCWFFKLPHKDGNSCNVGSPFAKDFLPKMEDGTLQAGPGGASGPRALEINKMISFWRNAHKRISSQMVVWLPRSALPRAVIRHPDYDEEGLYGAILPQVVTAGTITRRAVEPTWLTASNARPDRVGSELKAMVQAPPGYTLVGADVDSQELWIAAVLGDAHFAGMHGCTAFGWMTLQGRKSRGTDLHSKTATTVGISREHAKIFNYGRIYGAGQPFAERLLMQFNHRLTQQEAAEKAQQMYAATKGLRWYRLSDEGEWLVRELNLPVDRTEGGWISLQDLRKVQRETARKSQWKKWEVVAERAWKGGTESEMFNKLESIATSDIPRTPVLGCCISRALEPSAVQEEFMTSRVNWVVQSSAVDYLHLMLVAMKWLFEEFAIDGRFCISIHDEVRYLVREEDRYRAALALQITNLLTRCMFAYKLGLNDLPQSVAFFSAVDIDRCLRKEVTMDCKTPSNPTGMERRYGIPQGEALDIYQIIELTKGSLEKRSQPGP
Format: biochemical
From the text: Encouraged by the previously obtained results that γ-phosphate-modified-d4TDPs 3, γ-monoalkylated d4TTP derivatives as well as d4TDP were accepted as substrates by HIV-RT,[49],[50],[55],[59]−[61] δ-dialkylated d4T tetraphosphate analogues 4,5, δ-monoalkylated d4T tetraphosphate analogues 20 and 24 and d4T4P were investigated in primer extension assays in the presence of HIV-RT or the three different human DNA polymerases α, β and γ. D4TTP (for the compounds 4–9) and the natural thymidine triphosphate (TTP) were used as reference compounds.
Figure 6 Primer extension assay using HIV-RT (A), human polymerases α (B), β (C), and γ (D). (Figure 6A). Primer extension assay using HIV-RT (30 min, 6U). Lane 1: (+) dATP, dCTP, dGTP, and TTP with HIV-RT. Lane 2: (−) dATP, dCTP, dGTP, and TTP without HIV-RT. Lane 3: TTP. […] Lane 5: δ-(C4; C18)-d4T4P 4d. […] Lane 7: δ-(C18)-d4T4P 20. Lane 8: δ-C-(C18)-d4T4P 24. Lane 9: d4T4P. Lane 10: d4TTP. Lane 11: d4TDP. HIV-RT assay reaction conditions: 50 mM Tris–HCl (pH 8.6), 10 mM MgCl2, 40 mM KCl, 250 μM dNTPs, HIV-RT (6 U), 0.20 μM DNA hybrid, primer-template-hybrid 0.32 mM in a reaction volume of 10 μL, incubated at 37 °C for 0.5 h, 80 °C for 7 min. Primer extension assays: 50 mA, 45 w for 4 h. (Figure 6B). For human DNA polymerase α assay (60 min, 2 U): Lane 1: (+) dATP, dCTP, dGTP, and TTP with human polymerase α. Lane 2: (−) dATP, dCTP, dGTP, and TTP without human polymerase α. Lane 3: TTP. […] Lane 5: δ-(C4; C18)-d4T4P 4d. […] Lane 7: δ-(C18)-d4T4P 20. Lane 8: δ-C-(C18)-d4T4P 24. Lane 9: d4T4P. Lane 10: d4TTP. Human DNA polymerase α assay conditions: 60 mM Tris–HCl (pH 8), 5 mM Mg(OAc)2, 100 mM KCl, 1.0 mM dithiothreitol, 0.1 mM spermine, 0.01% (w/v) bovine serum albumin, 250 μM dNTPs, 2 U human polymerase α, 0.20 μM DNA hybrid, and primer-template-hybrid 0.32 mM in a reaction volume of 10 μL, incubated at 37 °C for 1 h, 80 °C for 7 min. Primer extension assays: 50 mA, 45 w for 3 h. (Figure 6C). For human DNA polymerase β assay (60 min, 2 U): Lane 1: (+) dATP, dCTP, dGTP, and TTP with human polymerase β. […]
With Cc1cn([C@H]2C=C[C@@H](COP(=O)(O)OP(=O)(O)OP(=O)(O)OP(=O)(O)O)O2)c(=O)[nH]c1=O [d4T4P, 2′,3′-didehydro-2′,3′-dideoxythymidine-5′-tetraphosphate] the “substrate for human DNA polymerase γ (primer extension)” value (“substrate for human DNA polymerase γ” for short) was “nonsubstrates; also recorded: not a substrate”. CCCCCCCCCCCCCCCCCCP(=O)(O)OP(=O)(O)OP(=O)(O)OP(=O)(O)OC[C@@H]1C=C[C@H](n2cc(C)c(=O)[nH]c2=O)O1 [compound 24, δ-C-(Alkyl-C18)-d4T4P] was tested, and the “substrate for human DNA polymerase γ” value was “nonsubstrates”. In the case of CCCCCCCCCCCCCCCCCCOP(=O)(O)OP(=O)(O)OP(=O)(O)OP(=O)(O)OC[C@@H]1C=C[C@H](n2cc(C)c(=O)[nH]c2=O)O1 [compound 20, δ-(Alkyl-C18)-d4T4P], the “substrate for human DNA polymerase γ” value was “nonsubstrates”.
